Laboratory results taken from US7071206B2, “Agents for treating neurodegenerative disorders” (Medivation, Inc., priority 1995, dated 2006).
Where “and” joins values, the source holds several entries; their conditions need not be identical. Identical values can stand only once. Marks after values point to notes of the source that are not given here.

Tested on: patients suffering from Alzheimer's disease
Assay: Clinical trial of dimebon tablets, inventors' scale (E. E. Bukatina et al.; 0 = absence of a symptom, 4 = greatest manifestation)
Format: in vivo, human
Protocol: The test was carried out under the direct supervision by two of the inventors, namely E. E. Bukatina and V. Grigorieva, in 14 patients who agreed to take part in the tests, 13 of whom lived in a boarding house for senile persons and one patient lived with their family.
Alzheimer's disease was diagnosed on the basis of criteria ICD-10 NINCDS ADRDA.
Dimebon in the form of tablets (comprising 10 mg of dimebon, 30 mg of lactose, 5 mg of magnesium stearate was prescribed for oral administration in a dose of 0.02 g three to times a day. The patients living in the boarding house received dimebon for 58 days. A patient (observation 14) who was under outpatient observation continued taking the agent for a month after the completion of the tests.
Before the treatment with dimebon, and at 4 and 8 weeks after treatment the patients were examined according to Hazegawa's scale and the inventors' scale (“Social and Clinical Psychiatry”, 1992, No.4, pp.29–37) which includes the following indexes: (1) orientation in locality, time, immediate surroundings and one's own personality; (2) orientation in space; (3) memory for the past; (4) memory for the present; (5) “life in the past”; (6) (a) articulation, (b) difficulty in finding words, and distortion of words; (c) naming of objects; (d) following instructions; (7) concentration (of attention); (8) an affective sphere; (a) high spirits, (b) low spirits; (9) delirium; (10) hearing hallucinations; (11) visual hallucinations; (12) senile or senile-like confusion (when motion anxiety is accompanied by the revival of the past experience); (13) irritability; (14) anxiety; (15) asthenia; (16) headaches; (17) dizziness; (18) tearfulness; (19) spontaneous activity; (20) elementary self-service; and (21 control of sphincters.
According to the Hazegawa's scale, the 0 score indicates the poorest result; on the contrary, according to the inventors' scale, the 0 score indicates the absence of a symptom 4 score indicates the greatest manifestation thereof. […] Before the therapy was started, the patients had been independently examined by two doctors who used the inventors' scale. The examination during the treatment was carried out by the doctors using both the scales. The evaluation according to all the inventors' scale points during all the tests and their variations during the treatment with dimebon are given in the Appendix.
According to the inventors' scale, the degree of the disturbance if the cognitive functions was determined by a sum of evaluations according to the first 5 scale points reflecting the condition of memory, orientation and relation with the reality. The disturbance of speech was dealt with separately and was determined by a sum of evaluations according to items 6b-6d.
Both absolute evaluations of the signs under investigation (the evaluation prior to treatment is a mean evaluation of the two examinations) and variations in them were analysed in the course of therapy. In doing so, only those changes that were beyond the range of evaluations obtained in two pre-treatment examinations were taken into consideration.
The test results reflected the condition of the patients at the time of the examination. Any changes in the metal state observed in the interval between the tests and disappearing by the moment of examination according to the scale were described in the section “Clinical Observations”.
The statistical data processing was carried out by means of Student's t-test and Fisher's “Fi” criterion.

[1] = score after 4 weeks, per patient, listed as dimebon
[2] = score after 8 weeks, per patient, listed as dimebon

Cc1ccc2c(c1)c1c(n2CCc2ccc(C)nc2)CCN(C)C1 [No. 10, 2,8-dimethyl-5-[2-(6-methyl-3-pyridyl)ethyl]-2,3,4,5-tetrahydro-1H-pyrido[4,3-b]indole]
share of patients with improvement of depression (of 11 patients with depressive symptoms prior to treatment, 8 weeks): 55% | 2. Orientation in space, 4 weeks [1]: 0 (10×) and 1 and 1.5 (2×) and 0.5 | 4. Memory for the present, 4 weeks [1]: 1.5 and 2 (4×) and 1 (3×) and 3 (5×) and 3.5 | 5. Life in the past, 4 weeks [1]: 1 (2×) and 1.5 (2×) and 0.5 (2×) and 2.5 (3×) and 2 (4×) and 3 | 6b. Difficulty in finding words, 4 weeks [1]: 0 (9×) and 1 (2×) and 1.5 and 0.5 and 2 | 6c. Naming of objects, 4 weeks [1]: 0 (7×) and 1 (4×) and 2 (3×) | 7. Concentration, 4 weeks [1]: 1.5 (2×) and 0 and 1 (3×) and 3 (4×) and 2 (3×) and 0.5 | 8b. Lower spirits, 4 weeks [1]: 1 (4×) and 0 (7×) and 0.5 (2×) and 2 | 9. Delirium, 4 weeks [1]: 0 (9×) and 1 (2×) and 2.5 and 1.5 and 2 | 13. Irritability, 4 weeks [1]: 0 (12×) and 2 and 1 | 14. Anxiety, 4 weeks [1]: 0 (10×) and 1 (4×) | 15. Asthenia, 4 weeks [1]: 0 (11×) and 1 (2×) and 0.5 | 16. Headache, 4 weeks [1]: 0.5 and 0 (11×) and 1 and 3 | 17. Dizziness, 4 weeks [1]: 0.5 and 0 (8×) and 1 (2×) and 2 and 2.5 and 3 | 18. Tearfulness, 4 weeks [1]: 1 and 0 (13×) | 19. Spontaneous activity, 4 weeks [1]: 1.5 and 1 (5×) and 0.5 and 2 (4×) and 0 (2×) and 3 | 20. Elementary self-service, 4 weeks [1]: 0 (13×) and 1 | 6d. Performing instructions, 4 weeks [1]: 1 (4×) and 0 (8×) and 0.5 and 2 | 1. Orientation in locality and time, 8 weeks (score after 8 weeks of treatment, per patient, listed as dimebon): 2 (4×) and 3 (2×) and 1.5 (2×) and 0 and 0.5 (2×) and 1 (2×) | 18. Tearfulness, 8 weeks (score after 8 weeks, per patient): 0 | 2. Orientation in space, 8 weeks [2]: 0 (11×) and 1.5 and 1 | 4. Memory for the present, 8 weeks [2]: 1 (4×) and 0.5 and 1.5 (2×) and 3 (4×) and 2 (2×) and 2.5 | 5. Life in the past, 8 weeks [2]: 0.5 (5×) and 1 (2×) and 3 (3×) and 1.5 and 2.5 (2×) and 2 | 6b. Difficulty in finding words, 8 weeks [2]: 0 (11×) and 1.5 and 2 (2×) | 6c. Naming of objects, 8 weeks [2]: 0 (9×) and 1 (2×) and 2 (2×) and 1.5 | 7. Concentration, 8 weeks [2]: 1 (5×) and 0 and 3 and 2 (3×) and 3.5 and 2.5 and 4 and 0.5 | 8b. Lower spirits, 8 weeks [2]: 0.5 (2×) and 0 (7×) and 1 (4×) and 1.5 | 9. Delirium, 8 weeks [2]: 0 (9×) and 1.5 (2×) and 1 (2×) and 2 | 13. Irritability, 8 weeks [2]: 0 (12×) and +1 and 1 | 14. Anxiety, 8 weeks [2]: 0 (11×) and 1 (2×) and 0.5 | 15. Asthenia, 8 weeks [2]: 0 (13×) and 0.5 | 16. Headache, 8 weeks [2]: 0 (8×) and 1 (2×) and 2 and 1.5 and 0.5 and 3 | 17. Dizziness, 8 weeks [2]: 0 (8×) and 1.5 and 3 and 2 and 1 (3×) | 19. Spontaneous activity, 8 weeks [2]: 1 (7×) and 1.5 and 0 (3×) and 2 (2×) and 4 | 20. Elementary self-service, 8 weeks [2]: 0 (13×) and 2 | 6d. Performing instructions, 8 weeks [2]: 1 (5×) and 2.5 and 0 (8×) | Cognitive functions (first 5 scale points): improvements, % (slight (by 0.5 score), 4 weeks): 5.7* % | Cognitive functions (first 5 scale points): improvements, abs. (slight (by 0.5 score), 4 weeks): 4* | Speech functions (items 6b, c, d): improvements, % (slight (by 0.5 score), 4 weeks): 2.4% | Speech functions (items 6b, c, d): improvements, abs. (slight (by 0.5 score), 4 weeks): 1 | Cognitive functions (first 5 scale points): improvements, % (slight (by 0.5 score), 8 weeks): 25.7* % | Cognitive functions (first 5 scale points): improvements, abs. (slight (by 0.5 score), 8 weeks): 18* | Speech functions (items 6b, c, d): deteriorations, % (slight (by 0.5 score), 8 weeks): 2.4% | Speech functions (items 6b, c, d): deteriorations, abs. (slight (by 0.5 score), 8 weeks): 1 | Speech functions (items 6b, c, d): improvements, % (slight (by 0.5 score), 8 weeks): 7.14% | Speech functions (items 6b, c, d): improvements, abs. (slight (by 0.5 score), 8 weeks): 3 | Cognitive functions (first 5 scale points): improvements, % (total, 4 weeks): 11.4% | Cognitive functions (first 5 scale points): improvements, abs. (total, 4 weeks): 8 | Speech functions (items 6b, c, d): deteriorations, % (total, 4 weeks): 2.4% | Speech functions (items 6b, c, d): deteriorations, abs. (total, 4 weeks): 1 | Speech functions (items 6b, c, d): improvements, % (total, 4 weeks): 9.5% | Speech functions (items 6b, c, d): improvements, abs. (total, 4 weeks): 4 | Cognitive functions (first 5 scale points): improvements, % (total, 8 weeks): 34.3% | Cognitive functions (first 5 scale points): improvements, abs. (total, 8 weeks): 24 | Speech functions (items 6b, c, d): deteriorations, % (total, 8 weeks): 9.6% | Speech functions (items 6b, c, d): deteriorations, abs. (total, 8 weeks): 4 | Speech functions (items 6b, c, d): improvements, % (total, 8 weeks): 14.3% | Speech functions (items 6b, c, d): improvements, abs. (total, 8 weeks): 6 | Item 10. hearing hallucinations (whole period of investigations, all patients): Item 10. No hearing hallucinations were observed throught the whole period of investigations.
